Source: US8716320B2, “Antibacteriall heterocyclic ureas” (Replidyne, Inc., priority 2006, dated 2014)
In brackets after ≈: the same amount, converted by molar mass.

Key:
S. aureus = experiment: Time kill kinetic studies; type: cell-based
S. pneumoniae = experiment: Time kill kinetic studies; type: cell-based
E. faecalis = experiment: Time kill kinetic studies; type: cell-based
[1] = tested on: linezolid-resistant S. aureus; experiment: Antibacterial activity against resistant strains (MIC); type: cell-based
Method: (§1) Compounds of the present invention were tested for antibacterial activity against a variety of pathogenic organisms including S. aureus, S. pneumoniae, S. pyogenes, E. faecalis, H. influenza and M. catarrhalis using a standard broth microdilution method to determine their minimum inhibitory concentrations (MICs). All compounds were tested using standard methods in accordance with CLSI guidelines (Clinical and Laboratory Standards Institute). […] Compounds of the present invention were not compromised by existing resistance to all drug classes tested, including β-lactams, glycopeptides, oxazolidinones, macrolides, and fluoroquinolones. In particular, the compound described in Example 31 was active against methicillin-(oxacillin-) resistant S. aureus (MRSA), vancomycin-intermediate S. aureus (VISA), linezolid-resistant S. aureus, methicillin-(oxacillin-) resistant S. epidermidis, macrolide-resistant S. pyogenes, macrolide-, penicillin-, and levofloxacin-resistant S. pneumoniae, and vancomycin-resistant E. faecalis (VRE).

[2] = tested on: macrolide-, penicillin-, and levofloxacin-resistant S. pneumoniae; experiment: as above; type: cell-based
Method: as §1

[3] = tested on: macrolide-resistant S. pyogenes; experiment: as above; type: cell-based
Method: as §1

[4] = tested on: methicillin-(oxacillin-) resistant S. aureus (MRSA); experiment: as above; type: cell-based
Method: as §1

[5] = tested on: methicillin-(oxacillin-) resistant S. epidermidis; experiment: as above; type: cell-based
Method: as §1

[6] = tested on: vancomycin-intermediate S. aureus (VISA); experiment: as above; type: cell-based
Method: as §1

[7] = tested on: vancomycin-resistant E. faecalis (VRE); experiment: as above; type: cell-based
Method: as §1

[8] = tested on: clinically relevant resistant strains; experiment: MICs in clinically relevant resistant strains (all listed strains together); type: cell-based; conditions: for MIC: range over the resistant strains listed
Method: as §1

S. pyogenes PolC = S. pyogenes PolC (Streptococcus pyogenes, UniProt Q8NZB5); experiment: Inhibition of PolC primer extension activity (scintillation proximity assay); type: biochemical; conditions: serial 2-fold dilutions, XLfit
Method: The polC gene from Streptococcus pyogenes was overexpressed and PolC was purified as described in PCT/JUS05/15548. Primer extension activity of PolC was measured using 1 μM oligonucleotide primer-template (primer strand 5′-ACCAGTGAGACGGGCAACA (SEQ ID NO: 1), template strand 5′-[…] SEQ ID NO: 2)). Reactions contained 10 mM magnesium acetate, 50 mM Tricine/Tris pH 7.8, 2.4% (w/v) polyethylene glycol (˜8000 MW), 0.024% pluronic F68, 1 mM dithiothreitol, 20 μM dATP, 20 μM dCTP, 0.5 μM dGTP, 0.72 μM dTTP, 0.28 μM 3H-dTTP (0.005 μCi/μL), 8% DMSO and 15 nM PolC. Reactions (25 μL) were incubated for 10 minutes at room temperature and stopped by addition of an equal volume of 100 mM EDTA. Incorporation of radiolabelled dTTP was measured by scintillation proximity assay by addition of 100 μL of 1 mg/mL PEI-PVT beads in 300 mM citrate pH 3.0.
Compounds of formula (I) were tested for inhibition of S. pyogenes PolC activity. Serial 2-fold dilutions of compounds were tested for inhibition of PolC activity and IC50's were determined (XLfit). […] These compounds were specific for prokaryotic DNA polymerase, showing little or no inhibition of eukaryotic S. cerevisiae polymerase delta at concentrations up to 160 μM.

[9] = tested on: S. aureus, S. pneumoniae, S. pyogenes, and E. faecalis; experiment: Broth microdilution MIC (CLSI), major Gram-positive organisms; type: cell-based; conditions: against some strains of S. aureus
Method: as §1

S. epidermidis = experiment: Time kill kinetic studies; type: cell-based
S. pyogenes = experiment: Time kill kinetic studies; type: cell-based
E. faecium = experiment: Time kill kinetic studies; type: cell-based
[10] = tested on: vancomycin-, macrolide-, and ciprofloxacin-resistant E. faecium; experiment: Antibacterial activity against resistant strains (MIC); type: cell-based
Method: as §1

[11] = tested on: MRSA, vancomycin-resistant E. faecalis (VRE), vancomycin-resistant E. faecium and macrolide-resistant S. pyogenes; experiment: MIC90 against resistant Gram-positive bacteria; type: cell-based, S. aureus
Method: as §1

Chain of S. pyogenes PolC (Q8NZB5 whole entry): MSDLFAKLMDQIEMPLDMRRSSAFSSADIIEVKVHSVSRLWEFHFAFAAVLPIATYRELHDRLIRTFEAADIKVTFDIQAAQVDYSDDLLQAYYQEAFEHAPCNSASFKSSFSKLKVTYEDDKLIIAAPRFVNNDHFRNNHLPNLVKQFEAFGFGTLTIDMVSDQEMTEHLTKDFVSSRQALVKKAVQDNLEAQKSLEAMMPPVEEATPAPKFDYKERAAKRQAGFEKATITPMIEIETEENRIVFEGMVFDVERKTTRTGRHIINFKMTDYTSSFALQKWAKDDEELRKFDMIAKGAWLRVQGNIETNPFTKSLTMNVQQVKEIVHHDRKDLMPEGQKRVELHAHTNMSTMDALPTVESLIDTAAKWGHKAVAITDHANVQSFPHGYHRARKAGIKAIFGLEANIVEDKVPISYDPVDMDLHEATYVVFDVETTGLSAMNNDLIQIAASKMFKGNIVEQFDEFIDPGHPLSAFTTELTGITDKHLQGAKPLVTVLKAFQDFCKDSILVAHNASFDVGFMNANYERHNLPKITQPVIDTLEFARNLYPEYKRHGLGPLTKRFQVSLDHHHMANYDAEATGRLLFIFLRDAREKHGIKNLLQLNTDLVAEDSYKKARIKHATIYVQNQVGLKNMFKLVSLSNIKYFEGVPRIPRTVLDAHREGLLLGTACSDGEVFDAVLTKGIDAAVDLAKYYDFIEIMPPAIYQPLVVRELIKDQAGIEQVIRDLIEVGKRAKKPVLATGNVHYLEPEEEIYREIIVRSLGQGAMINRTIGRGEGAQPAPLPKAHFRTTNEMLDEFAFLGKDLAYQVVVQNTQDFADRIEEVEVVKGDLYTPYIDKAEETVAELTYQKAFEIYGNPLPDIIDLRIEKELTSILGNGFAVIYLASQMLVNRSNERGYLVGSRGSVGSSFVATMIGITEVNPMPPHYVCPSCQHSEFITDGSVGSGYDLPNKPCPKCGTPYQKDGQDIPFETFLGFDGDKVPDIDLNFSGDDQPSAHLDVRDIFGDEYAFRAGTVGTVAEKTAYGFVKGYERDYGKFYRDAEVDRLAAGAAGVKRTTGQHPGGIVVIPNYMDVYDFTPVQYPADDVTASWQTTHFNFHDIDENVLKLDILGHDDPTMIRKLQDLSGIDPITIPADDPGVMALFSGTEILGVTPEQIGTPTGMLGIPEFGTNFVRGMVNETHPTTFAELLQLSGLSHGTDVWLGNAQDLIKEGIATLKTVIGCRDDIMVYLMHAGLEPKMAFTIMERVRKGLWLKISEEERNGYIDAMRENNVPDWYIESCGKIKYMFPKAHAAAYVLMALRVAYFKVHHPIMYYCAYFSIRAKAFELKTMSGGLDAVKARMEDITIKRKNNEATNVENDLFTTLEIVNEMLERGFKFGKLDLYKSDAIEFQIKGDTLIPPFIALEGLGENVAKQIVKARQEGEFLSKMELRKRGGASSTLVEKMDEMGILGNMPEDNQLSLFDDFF

## O=C(NCc1ccc(Cl)c(Cl)c1)Nc1nc(COCCO)cs1 [Example 31, 1-(3,4-Dichloro-benzyl)-3-[4-(2-hydroxy-ethoxymethyl)-thiazol-2-yl]-urea]
S. aureus
  time kill kinetics result: bactericidal
S. pneumoniae
  time kill kinetics result: bactericidal
E. faecalis
  time kill kinetics result: bactericidal
[1]
  activity against resistant strain: active
[2]
  activity against resistant strain: active
[3]
  activity against resistant strain: active
[4]
  activity against resistant strain: active
[5]; methicillin-(oxacillin-) resistant S. epidermidis
  activity against resistant strain: active
[6]
  activity against resistant strain: active
[7]; vancomycin-resistant E. faecalis (VRE)
  activity against resistant strain: active
[8]
  MICs in sensitive versus drug resistant strains: comparable
  MIC: 1 to 32 µg/mL (≈ 2.66 to 85 µM)

## O=C(NCc1ccc(Cl)c(Cl)c1)Nc1nc(CO)cs1 [Example 39, 1-(3,4-Dichlorobenzyl)-3-(4-(hydroxymethyl)thiazol-2-yl)urea]
S. pyogenes PolC
  IC50: 0.11 to 25 µM
[9]
  MIC: 0.12 to 4 µg/mL (≈ 0.361 to 12 µM)

## CCCCOCc1csc(NC(=O)NCc2ccc(Cl)c(Cl)c2)n1 [Example 21, 1-(3,4-Dichlorobenzyl)-3-(4-(butoxymethyl)thiazol-2-yl)urea]
[9]
  MIC: 0.12 to 4 µg/mL (≈ 0.309 to 10.3 µM)

## COCCOCc1csc(NC(=O)NCc2ccc3c(c2)OCO3)n1 [Example 52, 1-Benzo[1,3]dioxol-5-ylmethyl-3-[4-(2-methoxy-ethoxymethyl)-thiazol-2-yl]-urea]
[9]
  MIC: 0.12 to 4 µg/mL (≈ 0.328 to 10.9 µM)

## CS(=O)(=O)CCOCc1csc(NC(=O)NCc2ccc(Cl)c(Cl)c2)n1 [Example 28, 1-(3,4-Dichlorobenzyl)-3-(4-((2-(methylsulfonyl)ethoxy)methyl)thiazol-2-yl)urea]
S. aureus
  time kill kinetics result: bactericidal
S. pneumoniae
  time kill kinetics result: bactericidal
E. faecalis
  time kill kinetics result: bactericidal
S. epidermidis
  time kill kinetics result: bactericidal
S. pyogenes
  time kill kinetics result: bactericidal
E. faecium
  time kill kinetics result: bactericidal
[1]
  activity against resistant strain: active
[2]
  activity against resistant strain: active
[3]
  activity against resistant strain: active
[4]
  activity against resistant strain: active
[5]; methicillin-(oxacillin-) resistant and mupirocin resistant S. epidermidis
  activity against resistant strain: active
[10]
  activity against resistant strain: active
[6]
  activity against resistant strain: active
[7]; vancomycin-, macrolide-, and ciprofloxacin-resistant E. faecalis (VRE)
  activity against resistant strain: active
[8]
  MICs in sensitive versus drug resistant strains: comparable
  MIC: 0.5 to 4 µg/mL (≈ 1.14 to 9.12 µM)
[11]
  MIC90: 1 to 8 µg/mL (≈ 2.28 to 18.2 µM)

## COCCOCc1csc(NC(=O)NCc2ccc(Br)cc2)n1 [Example 56, 1-(4-bromobenzyl)-3-(4-((2-methoxyethoxy)methyl)thiazol-2-yl)urea]
S. pyogenes PolC
  IC50: 0.11 to 25 µM

## CC(=O)Nc1ccc(SCc2csc(NC(=O)NCc3ccc(Cl)c(Cl)c3)n2)cc1 [Example 149, 1-(3,4-dichlorobenzyl)-3-(4-((4-acetamidophenylthio)methyl)thiazol-2-yl)urea]
[9]
  MIC: 0.12 to 4 µg/mL (≈ 0.249 to 8.31 µM)

## COCc1csc(NC(=O)NCc2ccc(Cl)c(Cl)c2)n1 [Example 19, 1-(3,4-Dichlorobenzyl)-3-(4-(methoxymethyl)thiazol-2-yl)urea]
S. pyogenes PolC
  IC50: 0.11 to 25 µM
